Holding throughout (assay): NCI tumour cell line growth inhibition, 48 h
For test [1], the system named is UO-31 renal.
In test [2] the test system is NCI-H23 lung.
Test [3] relates to OVCAR-3 ovarian.
Test [4] has as its system MDA-MB-435.
For test [5], the system named is SNB-19 CNS.
Test [6] relates to RPMI-8226 leukemia.
Test [7] concerns EKVX NSCLC.
Test [8] deals with CAKI-1 renal.
Test [9] has as its system TK-10 renal.
Test [10] deals with K-562 leukemia.

The structures appear in SMILES notation.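 Growth conditions: 96-well plates. Treatment: test compound, 48 hours, 5 concentrations. Analysis: linear interpolation between bracketing concentrations; unreached endpoints set to highest concentration. Abbreviation: GI50, concentration required for 50% inhibition of growth. At the TGI there is no net growth.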

For `BrCc1ccc2ccc3ccc(CBr)nc3c2n1`, the TGI in test [1] is 4.57 µM; in [2], 19.4 µM; in [3], 3.43 µM; in test [4], 16.6 µM; in test [5], 19.5 µM; in [6], > 100 µM. Also, the TGI in [7] is 22.6 µM; in test [8], 12.7 µM; in test [9], 5.72 µM; in [10], > 28.4 µM.

With `C[C@]12CCC3c4ccc(O)cc4CCC3C1CC[C@@H]2NC(=O)/C=C/c1ccc(O)c(O)c1` (stereo not given in full), the GI50 in test [1] was 11.9 µM; in test [2], 11.8 µM; in test [3] it was 21.5 µM; in test [4], 13.6 µM; in [5], 13.7 µM; in test [6], 4.39 µM. For the same molecule, the GI50 in test [7] was 10.2 µM; in test [8], 16.4 µM; in test [9], 13.8 µM; in test [10], 6.51 µM. The TGI in test [1] is 47 µM; in test [2], 28.5 µM; in test [3], 48.7 µM; in [4], 39.1 µM; in test [5] it was 33.9 µM; in [6], 24.8 µM. In addition, the TGI in test [7] came to 31.2 µM; in test [8] it was 48.4 µM; in test [9], 50.6 µM; in test [10], 55.4 µM.

As for `CC(C)(O)c1cc(Nc2cc(Oc3cn(C4CC4)nc3C3CCOCC3)ccn2)ccn1`, the GI50 in test [1] is 54 µM; in test [2] it was 34.8 µM; in test [3] it was 98.1 µM; in test [4], > 100 µM; in [5], > 100 µM; in [6], 33.7 µM. Moreover, the GI50 in [7] was > 100 µM; in test [8], > 100 µM; in test [9], 69.8 µM; in test [10], 27.5 µM. In addition, the TGI in [1], in [2], in test [3], in [4], in test [5] and in test [6] was > 100 µM in each case. In addition, the TGI in test [7], in test [8], in test [9] and in test [10] was > 100 µM in each case.

Consider `COc1cc(C=NCC(=O)CSC(c2ccccc2)c2ccccc2)ccc1O`, for which the GI50 in test [1] was 12.7 µM; in test [2], 8 µM; in test [3] it was 11.3 µM; in [4] it was 14.3 µM; in test [5] it was 14.5 µM; in test [6], 6.26 µM. Besides, the GI50 is 14.3 µM in test [7], 16.6 µM in test [8], 14.7 µM in test [9] and 4.73 µM in test [10]. In addition, the TGI in test [1] was found to be 29.1 µM; in test [2], 20.5 µM; in test [3], 24.9 µM; in [4] it was 35.7 µM; in test [5] it was 28.7 µM; in test [6], 25.1 µM. Moreover, the TGI came to 50.7 µM in test [7], 43.2 µM in test [8], 53.7 µM in test [9] and 23.3 µM in test [10].

In the case of `O=C1C=C(NCCc2ccccc2)c2ccccc2C1=O`, the TGI stood at 11.4 µM in test [1]; 5.67 µM in test [2]; 5.59 µM in test [3]; 2.34 µM in [4]; 9.29 µM in test [5]; 67.5 µM in [6]. Also, the TGI worked out at 20.8 µM in [7], 21.8 µM in [8], 27.3 µM in [9] and 20.4 µM in [10].

On to `CC(C)(C)OC(=O)NCCCCCCCCCCCCn1c2c(c3ccccc3c1=O)C(=O)c1ccccc1-2`, for which the GI50 was > 100 µM in test [1]; 36.9 µM in test [2]; > 100 µM in test [3]; > 100 µM in test [4]; 32 µM in test [5]; > 100 µM in [6]. Moreover, the GI50 in [7] was 85.7 µM; in test [8], 22 µM; in test [9] it was 19.1 µM; in test [10], 46.9 µM. In addition, the TGI in [1] is > 100 µM; in test [2], > 100 µM; in [3], > 100 µM; in test [4], > 100 µM; in test [5] it was 83.5 µM; in test [6], > 100 µM. Also, the TGI in test [7] is > 100 µM; in [8], 57.9 µM; in [9], 45.5 µM; in [10] it was > 100 µM.

On to `C=C(CN1CCc2ccccc2C1)c1ccc(CCCC(=O)Nc2ccccc2N)cc1`, for which the GI50 in test [1] is 2.7 µM; in test [2], 20.1 µM; in test [3] it was 9.81 µM; in [4], 11.9 µM; in test [5], 23.2 µM; in test [6] it was 5.37 µM. The GI50 was 12 µM in test [7], 17.9 µM in [8], 41.3 µM in test [9] and 0.505 µM in test [10]. Also, the TGI in test [1] was 17.7 µM; in test [2] it was 48.6 µM; in [3], 22.2 µM; in test [4], 26.4 µM; in test [5] it was > 100 µM; in [6], 22.2 µM. For the same molecule, the TGI in test [7] was 47.1 µM; in [8], 82.5 µM; in [9], > 100 µM; in test [10], 25.3 µM.

Turning to `COC(=O)c1c(C(=O)O)c(-c2ccccc2)c(-c2ccccc2)c(-c2ccccc2)c1-c1ccccc1`, the GI50 in test [1] was 14.7 µM; in test [2] it was > 100 µM; in test [3], > 100 µM; in test [4], > 100 µM; in [5], 23.1 µM; in [6] it was 88.8 µM. Further, the GI50 is > 100 µM in test [7], > 100 µM in [8], > 100 µM in test [9] and 87 µM in test [10]. Further, the TGI was 43.5 µM in test [1]; > 100 µM in [2]; > 100 µM in [3]; > 100 µM in test [4]; > 100 µM in test [5]; > 100 µM in test [6]. Besides, the TGI in test [7], in test [8], in [9] and in test [10] was > 100 µM in each case.

For the origin of these results see PubChem BioAssay (NCI).
